Results reported in PMC2802337 (Prostaglandins, leukotrienes, and essential fatty acids, 2009).

Target: T1, 15-prostaglandin dehydrogenase/eicosanoid oxidoreductase (EOR) (Homo sapiens, UniProt P15428)
T1 sequence (P15428 1-266): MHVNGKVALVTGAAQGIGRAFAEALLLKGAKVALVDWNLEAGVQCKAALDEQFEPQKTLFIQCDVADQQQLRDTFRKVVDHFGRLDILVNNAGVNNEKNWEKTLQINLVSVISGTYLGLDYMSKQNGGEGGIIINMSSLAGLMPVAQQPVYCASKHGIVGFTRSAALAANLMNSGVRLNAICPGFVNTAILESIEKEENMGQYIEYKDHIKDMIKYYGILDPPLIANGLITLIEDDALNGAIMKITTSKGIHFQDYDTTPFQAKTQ
Assay: spectrophotometric NADH formation at […] nm, initial rate of conversion
Assay type: biochemical

## CCCCC[C@H](O)/C=C/C=C\C=C\C=C\[C@@H](O)[C@@H](O)CCCC(=O)O [LXA4]
  spectrophotometric NADH formation at 340 nm, initial rate of conversion: 3.1 µM/min
